Test results as given in patent US8399510B2, “Method of activating NK cells” (University of South Florida, priority 2007, dated 2013).

Key:
[1] = test system: WT LAK cells; experiment: 4 hour 51Cr release cytolysis assay with WT LAK cells; format: cell-based, mouse
Method: (§1) NK cells were magnetically enriched from whole splenocytes using the Miltenyi mouse NK cell enrichment kit and an Automac (Miltenyi) per the manufacturer's instructions. Magnetically enriched cells were plated at 2×10^6 cells/mL in the presence of 2000 units/mL human rIL-2 (Proleukin). Non-adherent cells were removed on day 2 and media replaced as necessary. On day 7 a standard 4 hour chromium release assay was performed. Briefly, target cells were loaded with 100 μCi of 51Cr per 1×10^6 cells for 60 minutes at 37° C. The target and lymphokine activate killer (LAK) 3 cells were then incubated together at 37° C. for 4 hours in the presence of inhibitors or media alone. Supernatants were collected and measured for radioactivity on a gamma counter (Perkin Elmer Wizard1470).
(§2) All experiments using sodium orthovanadate (NaOV) were performed with 100 μM activated NaOV. NaOV was activated by adjusting the pH of a 200 mM stock to pH 10.0 by the addition NaOH or HCl followed by boiling until the solution becomes colorless and then cooling to room temperature. This process is then repeated until the pH of the NaOV stabilizes at 10.0 (44). NaOV was added to the wells of the killing assay with the LAK cells 15 to 30 min prior to adding target cells at room temperature. NSC119910 was obtained from the Drug Synthesis and Chemistry Branch, Developmental Therapeutics Program, Division of Cancer Treatment and Diagnosis, NCI. The structure of NSC119910 was confirmed by proton NMR using a Varian Mercury-Plus, Oxford AS400 spectrometer. The 1H NMR spectrum was recorded at 400 MHz using DMSO-d6 as solvent and tetramethylsilane (TMS) as an internal standard. Chemical shift values are reported in parts per million (δ). […] 25 times this IC50 was established as the effective dose for NK cell based assays. NSC119910 was added immediately before the addition of target cells on ice. Both compounds were tested at their working concentration for the ability to kill and/or lyse the target cells without LAK cells being present.
Given the inappropriate degree of SHP1 recruitment to 2B4 in SHIP^−/− NK cells, the possibility of using chemical inhibitors to block its tyrosine phosphatase activity was explored to determine if this could restore killing of complex targets by SHIP-deficient NK cells. Standard four-hour 51Cr release assays were performed with SHIP^−/− (−/−) or WT (+/+) LAK cells, with a ratio of 30:1 and 3000 target cells for all conditions. […]
Next, the ability of NSC119910 to restore killing in the SHIP^−/− NK cell was tested. The effective in vitro dose at which NSC119910 was able to restore SHIP^−/− cytotoxicity was determined in a dose titration experiment. […] The cells were then stained for NK1.1, TCR-β and NKG2D and analyzed for NKG2D expression. […]

[2] = target: T1, SHP2 (Homo sapiens, UniProt Q06124); experiment: PTP inhibition assay (DiFMUP substrate), SHP2; format: biochemical; settings: in vitro phosphatase activity, versus PTP1b
T1 sequence (Q06124 1-593): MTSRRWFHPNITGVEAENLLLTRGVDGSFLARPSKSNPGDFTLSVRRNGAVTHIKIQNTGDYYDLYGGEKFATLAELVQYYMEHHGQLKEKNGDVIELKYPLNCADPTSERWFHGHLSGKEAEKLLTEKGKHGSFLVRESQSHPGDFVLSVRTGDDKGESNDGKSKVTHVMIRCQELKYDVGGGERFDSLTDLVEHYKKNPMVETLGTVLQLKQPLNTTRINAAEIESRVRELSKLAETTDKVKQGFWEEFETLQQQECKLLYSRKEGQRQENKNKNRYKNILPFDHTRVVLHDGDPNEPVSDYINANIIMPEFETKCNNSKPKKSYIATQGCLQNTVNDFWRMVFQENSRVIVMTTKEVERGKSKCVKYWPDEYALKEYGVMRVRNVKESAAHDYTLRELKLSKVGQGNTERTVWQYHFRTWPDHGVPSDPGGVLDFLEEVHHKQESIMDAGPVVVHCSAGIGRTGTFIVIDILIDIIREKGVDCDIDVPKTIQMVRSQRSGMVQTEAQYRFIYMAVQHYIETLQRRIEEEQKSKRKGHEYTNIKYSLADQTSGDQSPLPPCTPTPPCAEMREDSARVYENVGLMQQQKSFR
Method: (§3) PTP activity was measured using the fluorogenic 6,8-difluoro-4-methylumbelliferyl phosphate (DiFMUP; Invitrogen, Carlsbad, Calif.) as the substrate. Each reaction contained 25 mM HEPES, 50 mM NaCl, 0.05% Triton, 1 mM dithiothreitol, 20 μM DiFMUP, 10 nM Microcystin LR, 20 nM GST-PTP, and 10 μl of test compound or dimethyl sulfoxide (solvent) in a total reaction volume of 100 μl in black 96-well plates. Reaction was initiated by addition of DiFMUP, and the incubation time was 30 min at room temperature. DiFMUP fluorescence signal was measured at an excitation of 355 nm and an emission of 460 nm with a plate reader (Victor2 1420; PerkinElmer Wallac, Gaithersburg, Md.). IC50 was defined as the concentration of an inhibitor that caused a 50% decrease in the PTP activity. For IC50 determination, eight concentrations of NSC119910 at one-third dilution (˜0.5 log) were tested. The ranges of NSC119910 concentrations used in each PTP assay were determined from preliminary trials. Each experiment was performed either in triplicate or duplicate, and IC50 data were derived from at least two independent experiments. The curve-fitting program Prism 4 (GraphPad Software, San Diego, Calif.) was used to calculate IC50 values.

[3] = test system: SHIP−/− LAK cells; experiment: 4 hour 51Cr release cytolysis assay with SHIP−/− LAK cells; format: cell-based
Method: as §1, §2
Given the inappropriate degree of SHP1 recruitment to 2B4 in SHIP^−/− NK cells, the possibility of using chemical inhibitors to block its tyrosine phosphatase activity was explored to determine if this could restore killing of complex targets by SHIP-deficient NK cells. Standard four-hour 51Cr release assays were performed with SHIP^−/− (−/−) or WT (+/+) LAK cells, with a ratio of 30:1 and 3000 target cells for all conditions. NaOV (100 μM) was used first, a broadly acting tyrosine phosphatase inhibitor to counteract the effects of the SHP1 over-recruitment to 2B4, with a medium-only negative control. […] In fact, SHIP-deficient NK cytolysis of RMA parental targets exceeds that of WT LAK cells. This supernormal killing has been consistently observed against RMA targets in three separate studies with NaOV-treated SHIP^−/− LAK cells. This finding indicates phosphatase inhibition can restore the ability of SHIP^−/− NK cells to kill complex targets via NKG2D, while also expanding the capacity of SHIP-deficient NK cells to kill tumor cells in the absence of ligands for NKG2D.
Next, the ability of NSC119910 to restore killing in the SHIP^−/− NK cell was tested. The effective in vitro dose at which NSC119910 was able to restore SHIP^−/− cytotoxicity was determined in a dose titration experiment. Through this, 67.32 μM was identified as the effective dose (data not shown). This concentration of 67.32 μM of NSC119910 was used for all subsequent standard 4-hour 51Cr release assays, performed with SHIP^−/− (^−/−) or WT (^+/+) LAK cells and using a ratio of 30:1 and 3000 target cells in the presence of 67.32 μM NCI119910 or media alone (−). […] The experiments were repeated, using M157+ BaF3 transfectants were used as targets (FIG. 5D). SHIP^−/− (^−−) or WT (^++) cells were incubated with 67.32 μM NSC119910 (119910) or media alone (CNT) for 4 hours. The cells were then stained for NK1.1, TCR-β and NKG2D and analyzed for NKG2D expression. […]

[4] = test system: NKG2D; experiment: NKG2D expression on LAK cells (staining for NK1.1, TCR-β, NKG2D); format: cell-based, mouse; settings: 67.32 μM NSC119910, 4 hours; SHIP−/− or WT cells
Method: Next, the ability of NSC119910 to restore killing in the SHIP^−/− NK cell was tested. The effective in vitro dose at which NSC119910 was able to restore SHIP^−/− cytotoxicity was determined in a dose titration experiment. Through this, 67.32 μM was identified as the effective dose (data not shown). This concentration of 67.32 μM of NSC119910 was used for all subsequent standard 4-hour 51Cr release assays, performed with SHIP^−/− (^−/−) or WT (^+/+) LAK cells and using a ratio of 30:1 and 3000 target cells in the presence of 67.32 μM NCI119910 or media alone (−). […] The experiments were repeated, using M157+ BaF3 transfectants were used as targets (FIG. 5D). SHIP^−/− (^−−) or WT (^++) cells were incubated with 67.32 μM NSC119910 (119910) or media alone (CNT) for 4 hours. The cells were then stained for NK1.1, TCR-β and NKG2D and analyzed for NKG2D expression. The addition of NSC119910 to LAK cells had no effect on the expression levels of NKG2D (FIG. 5E). The experiments were also performed with m157^+ BaF3 targets. […] Although the increase is not as dramatic as observed with NKG2D mediated cytolysis, this increase has been observed consistently in multiple cytolysis assays with the m157^+ BaF3 targets. […]

[5] = target: SHP1 (Homo sapiens, UniProt P29350); experiment: PTP inhibition assay (DiFMUP substrate), SHP1; format: biochemical
Chain of SHP1 (P29350 whole entry): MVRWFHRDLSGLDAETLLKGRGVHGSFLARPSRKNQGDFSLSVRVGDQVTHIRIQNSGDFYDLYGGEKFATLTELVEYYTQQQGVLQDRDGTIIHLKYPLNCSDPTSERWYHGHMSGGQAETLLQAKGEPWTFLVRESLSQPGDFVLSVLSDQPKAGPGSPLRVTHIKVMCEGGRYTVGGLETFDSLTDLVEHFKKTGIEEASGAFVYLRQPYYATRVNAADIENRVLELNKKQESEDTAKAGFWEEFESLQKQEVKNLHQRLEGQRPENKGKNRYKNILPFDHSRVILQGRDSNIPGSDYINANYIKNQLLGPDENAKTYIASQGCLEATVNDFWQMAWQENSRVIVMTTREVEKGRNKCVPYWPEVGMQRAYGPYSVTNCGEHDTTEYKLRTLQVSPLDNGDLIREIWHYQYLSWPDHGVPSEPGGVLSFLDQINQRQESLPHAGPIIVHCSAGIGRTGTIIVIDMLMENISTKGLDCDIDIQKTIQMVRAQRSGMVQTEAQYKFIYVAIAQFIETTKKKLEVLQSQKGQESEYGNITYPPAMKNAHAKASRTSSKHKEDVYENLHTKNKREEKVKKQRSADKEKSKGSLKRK
Method: as §3

[6] = 67.32 μM NSC119910, ratio 30:1, 3000 target cells
[7] = 100 μM NaOV, ratio 30:1, 3000 target cells

SMILES | cytolytic activity of WT NK cells against Rae1+ targets [1, 6] | killing of m157+ cells by WT LAK cells ([1]; NSC119910, compared with the increase seen with NaOV) | killing of RMA cells by WT NK cells ([1]; in the presence of NSC119910) | selectivity to SHP2 over PTP1b [2] | killing of m157+ BaF3 targets by SHIP−/− NK cells ([3]; 67.32 μM NSC119910) | killing of Rae1+ RMA targets by SHIP−/− NK cells [3, 6] | killing of parental RMA targets by SHIP−/− NK cells [3, 6] | effective in vitro dose restoring SHIP−/− cytotoxicity ([3]; dose titration experiment (data not shown)) | expression levels of NKG2D on LAK cells [4] | selectivity to SHP1 over PTP1b ([5]; in vitro phosphatase activity, versus PTP1b) | IC50 ([5]; purified SHP1, read-out: cell free, in vitro IC50 using purified SHP1) | killing of RMA or RMA-Rae1+ targets by WT LAK cells [1, 7] | killing of m157+ BaF3 targets by SHIP−/− NK cells ([3]; 100 μM NaOV) | killing of parental BaF3 targets by SHIP−/− NK cells ([3]; 100 μM NaOV) | killing of RMA parental targets by SHIP−/− LAK cells [3, 7] | killing of Rae1+ RMA targets by SHIP−/− LAK cells [3, 7]
O=C(O)C1CCCCC1c1c2ccc(=O)c(O)c-2oc2c(O)c(O)ccc12 (stereo not shown) [NSC119910] | no effect | the same increase of killing of m157^+ cells by WT LAK cells was not seen | increase | approximately 100 fold | increased | significantly restored killing | significantly restored killing | 67.32 µM | no effect | approximately 10 fold | 2.7 µM |  |  |  |  | 
[Na+].[Na+].[Na+].[O]=[V]([O-])([O-])[O-] [NaOV, Sodium orthovanadate, reference compound] |  |  |  |  |  |  |  |  |  |  |  | increased killing by WT LAK cells was not seen | able to increase the capacity | able to increase the capacity | increased the capacity | restore cellular ability to mediate efficient killing
